Laboratory results as given in patent US12729377B2, “RNAi agents and compositions for inhibiting expression of angiopoietin-like 3 (ANGPTL3), and methods of use” (Arrowhead Pharmaceuticals, Inc., priority 2017, dated 2026).
In the oligonucleotide strings, read from the 5' end, every base follows the letter of its sugar. An asterisk marks phosphorothioate; unmarked linkages are phosphodiester. Other units and linkages are bracketed, terminal groups are in braces. A string of capitals states the bases alone. {NAG37} = tridentate N-acetyl-galactosamine targeting ligand, structure (NAG37)s; [invAb] = inverted abasic unit; m = 2'-O-methyl; f = 2'-fluoro

Legend:
ANGPTL3 gene [1] = test: Example 4: serum LDL in mice; assay type: in vivo, C57bl/6 mice
ANGPTL3 gene [2] = test: Example 12: serum HDL in LDLR knockout mice; assay type: in vivo, LDLR KO mice; conditions: 3.0 mg/kg sc day 1
From the text: To evaluate the effect of RNAi agent administration in a disease model, mice having a genetic mutation for the LDL receptor (referred to herein as LDLR KO mice) were commercially obtained (The Jackson Laboratory). The LDLR KO mice are homozygous for the Ldlr^tm1Her mutation, and have elevated serum cholesterol levels, particularly when placed on a high fat diet. For three weeks prior to the onset of the study, thirty-nine (39) LDLR KO mice were placed on a high fat diet (Teklad Custom Diets TD.88137). An additional eight (8) LDLR KO mice were placed on a normal chow diet over the same three-week period. Pre-dose serum samples were taken on day −15 and day −1 after a four hour fast. At day 1, each mouse was given a single subcutaneous administration of 200 μl/30 g animal body weight containing the respective mg/kg dose of an ANGPTL3 RNAi agent in D5W (dextrose in 5% water), control (D5W) with no RNAi agent, or a control RNAi agent that included a nucleotide sequence designed to target the Hepatitis B Virus (HBV) genome. A second injection of the same formulation was administered to the animals on day 29. The dosing regimen for the study is recited in the following Table 60:
Each mouse remained on its respective diet through the duration of study. The RNAi agent tested (AD05488) included a modified sequence and an N-acetyl-galactosamine-containing targeting ligand conjugated to the 5′ terminal end of the sense strand. (See Tables 3, […] modified sequences and targeting ligand structures). The injections were performed between the skin and muscle (i.e. subcutaneous injections) into the loose skin over the neck and shoulder area. Serum was collected on days 8, 15, 22, 29 (pre-second dose), 36, 43, 50, and 57. LDLR KO mice were fasted for four hours prior to each collection. On day 15, four (4) LDLR KO mice from Groups 1, 2, and 3 (i.e., the groups being administered the high fat “Western” diet) were sacrificed after serum collection, and on day 29, an additional four (4) LDLR KO mice from Groups 1, 2, and 3 were sacrificed after serum collection, for the purpose of performing mRNA assessments.
ANGPTL3 protein levels in serum were measured by ELISA assay (R&D Systems), according to the manufacturer's recommendations. Triglycerides, total cholesterol, high-density lipoprotein (HDL), and low-density lipoprotein (LDL) in serum were measured on a Cobas® Integra 400 (Roche Diagnostics), according to the manufacturer's recommendations.
The ANGPTL3 protein levels, triglyceride levels, total cholesterol levels, HDL levels, and LDL levels for each animal were normalized. For normalization, respective levels of ANGPTL3 protein, TG, total cholesterol, HDL, or LDL for each animal at a time point was divided by the average pre-treatment level of expression in that animal (in this case the average of day −15 and day −1) to determine the ratio of expression “normalized to pre-treatment.”
Expression at a specific time point was then normalized to the D5W control group that was administered the same diet (i.e., either the high fat “Western” diet or the normal chow-fed diet) by dividing the “normalized to pre-treatment” ratio for an individual animal by the mean “normalized to pretreatment” ratio of all mice in the D5W control group on the respective same diet, resulting in expression for each time point normalized to that in the control group.

ANGPTL3 gene [3] = test: Example 9: serum HDL in cynomolgus monkeys; assay type: in vivo, cynomolgus macaque (Macaca fascicularis); conditions: 2.0 mg/kg single SC injection day 1, cynos, n=3
Experimental: Additional ANGPTL3 RNAi agents were evaluated in cynomolgus monkeys. On day 1, cynomolgus macaque (Macaca fascicularis) primates (also referred to herein as “cynos”) were administered a single subcutaneous injection of 0.3 mL/kg (approximately 2-3 mL volume, depending on animal mass) containing 2.0 mg/kg of an ANGPTL3 RNAi agent, which included either AD05488, AD05743, AD05775, or AD05841, each formulated in saline. […] ANGPTL3 RNAi agents AD05488, AD05743, and AD05775 included nucleotide sequences designed to target position 304 of the ANGPTL3 gene. ANGPTL3 RNAi agent AD05841 included nucleotide sequences designed to target position 1035 of the ANGPTL3 gene.
Three (3) cynos in each group were tested (n=3). Blood samples were drawn and serum samples were analyzed on days −14 (predose), −7 (predose), 1 (pre-dose), 8, 15, 22, 29, and 35. Cynos were fasted overnight prior to each collection. ANGPTL3 protein levels in serum were measured by ELISA assay (R&D Systems), according to the manufacturer's recommendations. Triglycerides, total cholesterol, high-density lipoprotein (HDL), and low-density lipoprotein (LDL) in serum were measured on a Cobas® Integra 400 (Roche Diagnostics), according to the manufacturer's recommendations.
The ANGPTL3 protein levels, triglyceride levels, total cholesterol levels, HDL levels, and LDL levels for each animal were normalized. For normalization, the level of ANGPTL3 protein, triglyceride, HDL, and total cholesterol, respectively, for each animal at a time point, was divided by the average pre-treatment level of expression in that animal (in this case at days −14, −7, and 1) to determine the ratio of expression “normalized to pre-treatment.”

Substance	Avg LDL, normalized to pre-treatment and control (ANGPTL3 gene [1]; Day 22, 0.5 mg/kg single SC injection on day 1, n=3)	Avg LDL, normalized to pre-treatment and control (ANGPTL3 gene [1]; Day 29, 0.5 mg/kg single SC injection on day 1, n=3)	Avg LDL, normalized to pre-treatment and control (ANGPTL3 gene [1]; Day 43, 0.5 mg/kg single SC injection on day 1, n=3)	Avg HDL Normalized to Pre-Treatment and Control (Diet Matched) (ANGPTL3 gene [2]; High Fat Diet, Day 8)	Avg HDL Normalized to Pre-Treatment and Control (Diet Matched) (ANGPTL3 gene [2]; High Fat Diet, Day 15)	Avg HDL Normalized to Pre-Treatment and Control (Diet Matched) (ANGPTL3 gene [2]; High Fat Diet, Day 22)	Avg HDL Normalized to Pre-Treatment and Control (Diet Matched) (ANGPTL3 gene [2]; High Fat Diet, Day 29 (pre-second dose))	Avg HDL Normalized to Pre-Treatment and Control (Diet Matched) (ANGPTL3 gene [2]; Normal Diet, Day 8)	Avg HDL Normalized to Pre-Treatment and Control (Diet Matched) (ANGPTL3 gene [2]; Normal Diet, Day 15)	Avg HDL Normalized to Pre-Treatment and Control (Diet Matched) (ANGPTL3 gene [2]; Normal Diet, Day 22)	Avg HDL Normalized to Pre-Treatment and Control (Diet Matched) (ANGPTL3 gene [2]; Normal Diet, Day 29 (pre-second dose))	Average HDL Normalized to Pre-Treatment (ANGPTL3 gene [3]; Day 8)	Average HDL Normalized to Pre-Treatment (ANGPTL3 gene [3]; Day 15)	Average HDL Normalized to Pre-Treatment (ANGPTL3 gene [3]; Day 22)	Average HDL Normalized to Pre-Treatment (ANGPTL3 gene [3]; Day 29)	Average HDL Normalized to Pre-Treatment (ANGPTL3 gene [3]; Day 35)
AD05308: RNAi agent duplex: antisense AM07003-AS, sense AM07002-SS (chain 1 mU*fG*mU*fUmGfAmAfUmUfAmAfUmGfUmCfCmAfUmGfG*mA; chain 2 {NAG37}*[invAb]*mUmCmCmAmUmGmGmAfCfAfUmUmAmAmUmUmCmAmAmCmA*[invAb])	1.209	1.251	1.375	–	–	–	–	–	–	–	–	–	–	–	–	–
AD05488: RNAi agent duplex: antisense AM07235-AS, sense AM07234-SS (antisense mU*fA*mC*fUmGfAmUfCmAfAmAfUmAfUmGfUmUfGmAfG*mC; sense {NAG37}*[invAb]*mGmCmUmCmAmAmCmAfUfAfUmUmUmGmAmUmCmAmGmUmA*[invAb])	–	–	–	0.693	0.735	0.716	0.711	0.645	0.745	0.766	0.737	0.985	0.911	0.849	0.856	0.810
